According to patent publication US20250034125A1, “COMPOUNDS AND USES THEREOF” (JANSSEN PHARMACEUTICA NV, priority 2019, published 2025):
Where two headings read alike, the source gives them in different places.

What was measured:
[1] = target: T1, SCD5 (Homo sapiens, UniProt Q86SK9); assay: Growth inhibition of yeast (ole1Δ) expressing human SCD5 as the sole desaturase; type: cell-based
T1 construct: host or cells: Saccharomyces cerevisiae ole1Δ strain (W303 pdr1Δ pdr3Δ background), plasmid pRS316, TDH3 promoter
T1 sequence (Q86SK9 1-330): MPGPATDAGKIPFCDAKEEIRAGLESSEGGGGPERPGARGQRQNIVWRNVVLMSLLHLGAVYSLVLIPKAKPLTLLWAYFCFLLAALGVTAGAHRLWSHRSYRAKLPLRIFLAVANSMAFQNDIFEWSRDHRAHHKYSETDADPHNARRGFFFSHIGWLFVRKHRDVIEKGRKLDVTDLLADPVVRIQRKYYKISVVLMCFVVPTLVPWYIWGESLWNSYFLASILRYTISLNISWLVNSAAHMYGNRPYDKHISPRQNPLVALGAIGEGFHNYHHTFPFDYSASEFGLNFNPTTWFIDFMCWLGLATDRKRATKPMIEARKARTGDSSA

[2] = target: T2, SCD1 (Homo sapiens, UniProt O00767); assay: Growth inhibition of yeast (ole1Δ) expressing human SCD1 as the sole desaturase; type: cell-based
T2 construct: host or cells: Saccharomyces cerevisiae ole1Δ strain (W303 pdr1Δ pdr3Δ background), plasmid pRS316, TDH3 promoter
T2 sequence (O00767 1-359): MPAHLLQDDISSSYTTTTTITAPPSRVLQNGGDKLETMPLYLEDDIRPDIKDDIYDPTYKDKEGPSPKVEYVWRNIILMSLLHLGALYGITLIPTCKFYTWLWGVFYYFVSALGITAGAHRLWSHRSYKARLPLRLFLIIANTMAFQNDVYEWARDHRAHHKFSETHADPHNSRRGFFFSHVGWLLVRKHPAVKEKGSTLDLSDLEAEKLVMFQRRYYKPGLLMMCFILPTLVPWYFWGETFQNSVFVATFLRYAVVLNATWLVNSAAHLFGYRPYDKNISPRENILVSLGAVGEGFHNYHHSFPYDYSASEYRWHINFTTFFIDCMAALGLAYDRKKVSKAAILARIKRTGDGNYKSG

[3] = yeast strain with SCD5 plasmid, OD600 growth read at 40 h, read-out: SCD5 IC50
[4] = yeast strain with SCD1 plasmid, OD600 growth read at 40 h, read-out: SCD1 IC50

O=c1ccc(-c2noc(N3CCC(Cc4ccc(F)c(F)c4)CC3)n2)c[nH]1 [Compound 1]
IC50 [1, 3]: 3.8 µM
IC50 [2, 4]: 14 µM

O=c1ccc(-c2noc(N3CCC(Cc4cc(F)cc(F)c4)CC3)n2)c[nH]1 [Compound 2]
IC50 [1, 3]: > 45 µM
IC50 [2, 4]: > 45 µM

Cn1cc(NC(=O)N2CCC(Cc3cc(F)cc(F)c3)C2)ccc1=O (stereo not shown) [Compound 3, 3-(3,5-difluorobenzyl)-N-(1-methyl-6-oxo-1,6-dihydropyridin-3-yl)pyrrolidine-1-carboxamide]
IC50 [1, 3]: 20.7 µM
IC50 [2, 4]: 11.3 µM

Cn1cc(CC(=O)N2CCC(Cc3cccc(Cl)c3)CC2)ccc1=O [Compound 4, 5-(2-(4-(3-chlorobenzyl)piperidin-1-yl)-2-oxoethyl)-1-methylpyridin-2(1H)-one]
IC50 [1, 3]: 24.7 µM
IC50 [2, 4]: > 45 µM

Cn1cc(CC(=O)N2CCC(Oc3cccc(Cl)c3)CC2)ccc1=O [Compound 5, 5-(2-(4-(3-chlorophenoxy)piperidin-1-yl)-2-oxoethyl)-1-methylpyridin-2(1H)-one]
IC50 [1, 3]: > 45 µM
IC50 [2, 4]: > 45 µM

Cn1cc(NC(=O)N2CCC(Cc3ccc(F)c(F)c3)CC2)ccc1=O [Compound 7]
IC50 [1, 3]: 5.01 µM
IC50 [2, 4]: > 45 µM

Cn1cc(NC(=O)N2CCC(Cc3cc(F)cc(Cl)c3)CC2)ccc1=O [Compound 8, 4-(3-chloro-5-fluorobenzyl)-N-(1-methyl-6-oxo-1,6-dihydropyridin-3-yl)piperidine-1-carboxamide]
IC50 [1, 3]: 0.83 µM
IC50 [2, 4]: 2.32 µM

Cn1cc(NC(=O)N2CCC(Cc3cc(F)ccc3F)CC2)ccc1=O [Compound 10]
IC50 [1, 3]: > 45 µM
IC50 [2, 4]: > 45 µM

Cn1cc(NC(=O)N2CCC(Nc3cc(F)cc(F)c3)CC2)ccc1=O [Compound 11, 4-(3,5-difluorophenylamino)-N-(1-methyl-6-oxo-1,6-dihydropyridin-3-yl)piperidine-1-carboxamide]
IC50 [1]: > 45 µM
IC50 [2]: > 45 µM

Cn1cc(-c2nc(N3CCC(Oc4cc(F)cc(F)c4)CC3)no2)ccc1=O [Compound 15, 5-(3-(4-(3,5-difluorophenoxy)piperidin-1-yl)-1,2,4-oxadiazol-5-yl)-1-methylpyridin-2(1H)-one]
IC50 [1, 3]: 0.86 µM
IC50 [2, 4]: 12.4 µM

Cn1cc(-c2nc(N3CCC(Oc4cccc(F)c4Cl)CC3)no2)ccc1=O [Compound 16, 5-(3-(4-(2-chloro-3-fluorophenoxy)piperidin-1-yl)-1,2,4-oxadiazol-5-yl)-1-methylpyridin-2(1H)-one]
IC50 [1, 3]: 0.59 µM
IC50 [2, 4]: 0.35 µM

Cn1cc(-c2nc(N3CCC(Cc4cc(F)cc(F)c4)CC3)no2)ccc1=O [Compound 17, 5-(3-(4-(3,5-difluorobenzyl)piperidin-1-yl)-1,2,4-oxadiazol-5-yl)-1-methylpyridin-2(1H)-one]
IC50 [1, 3]: 0.01 µM
IC50 [2, 4]: 0.72 µM

Cn1cc(-c2nnc(N3CCC(Cc4cccc(F)c4)CC3)o2)ccc1=O [Compound 18, 5-(5-(4-(3-fluorobenzyl)piperidin-1-yl)-1,3,4-oxadiazol-2-yl)-1-methylpyridin-2(1H)-one]
IC50 [1, 3]: 1.93 µM
IC50 [2, 4]: > 45 µM

Cn1cc(-c2nnc(N3CCC(Cc4cc(F)cc(F)c4)CC3)o2)ccc1=O [Compound 19, 5-(5-(4-(3,5-difluorobenzyl)piperidin-1-yl)-1,3,4-oxadiazol-2-yl)-1-methylpyridin-2(1H)-one]
IC50 [1, 3]: 1 µM
IC50 [2, 4]: 9.72 µM

Cn1cc(-c2noc(N3CCC(Cc4ccc(F)c(F)c4)CC3)n2)ccc1=O [Compound 20, 5-(5-(4-(3,4-difluorobenzyl)piperidin-1-yl)-1,2,4-oxadiazol-3-yl)-1-methylpyridin-2(1H)-one]
IC50 [1, 3]: 1.4 µM
IC50 [2, 4]: 2.7 µM

Cn1cc(-c2noc(N3CCC(Cc4cc(F)cc(F)c4)CC3)n2)ccc1=O [Compound 21, 5-(5-(4-(3,5-difluorobenzyl)piperidin-1-yl)-1,2,4-oxadiazol-3-yl)-1-methylpyridin-2(1H)-one]
IC50 [1, 3]: 3 µM
IC50 [2, 4]: 10 µM

Cn1nc(NC(=O)N2CC(Cc3cccc(Cl)c3)C2)ccc1=O [Compound 22, 3-(3-chlorobenzyl)-N-(1-methyl-6-oxo-1,6-dihydropyridazin-3-yl)azetidine-1-carboxamide]
IC50 [1, 3]: 0.95 µM
IC50 [2, 4]: 2.59 µM

Cn1nc(NC(=O)N2CC(Oc3ccc(F)c(F)c3)C2)ccc1=O [Compound 23, 3-(3,4-difluorophenoxy)-N-(1-methyl-6-oxo-1,6-dihydropyridazin-3-yl)azetidine-1-carboxamide]
IC50 [1, 3]: 1.8 µM
IC50 [2, 4]: 1.3 µM

Cn1nc(NC(=O)N2CC(Oc3cc(F)cc(F)c3)C2)ccc1=O [Compound 24, 3-(3,5-difluorophenoxy)-N-(1-methyl-6-oxo-1,6-dihydropyridazin-3-yl)azetidine-1-carboxamide]
IC50 [1, 3]: 2.9 µM
IC50 [2, 4]: 1.1 µM

Cn1nc(NC(=O)N2CCC(Cc3cccc(Cl)c3)C2)ccc1=O (stereo not shown) [Compound 25, 3-(3-chlorobenzyl)-N-(1-methyl-6-oxo-1,6-dihydropyridazin-3-yl)pyrrolidine-1-carboxamide]
IC50 [1, 3]: 5.29 µM
IC50 [2, 4]: 2.75 µM

Cn1nc(NC(=O)N2CCC(Cc3cc(F)cc(F)c3)C2)ccc1=O (stereo not shown) [Compound 26, 3-(3,5-difluorobenzyl)-N-(1-methyl-6-oxo-1,6-dihydropyridazin-3-yl)pyrrolidine-1-carboxamide]
IC50 [1, 3]: 5.68 µM
IC50 [2, 4]: 4.15 µM

Cn1nc(NC(=O)N2CC[C@@H](Oc3ccc(F)c(F)c3)C2)ccc1=O [Compound 27, (3R)-3-(3,4-difluorophenoxy)-N-(1-methyl-6-oxo-1,6-dihydropyridazin-3-yl)pyrrolidine-1-carboxamide]
IC50 [1, 3]: > 45 µM
IC50 [2, 4]: 17 µM

Cn1nc(NC(=O)N2CC[C@@H](Oc3cc(F)cc(F)c3)C2)ccc1=O [Compound 28, (3R)-3-(3,5-difluorophenoxy)-N-(1-methyl-6-oxo-1,6-dihydropyridazin-3-yl)pyrrolidine-1-carboxamide]
IC50 [1, 3]: > 45 µM
IC50 [2, 4]: 8.1 µM

Cn1nc(NC(=O)N2CC[C@H](Oc3ccc(F)c(F)c3)C2)ccc1=O [Compound 29, (3S)-3-(3,4-difluorophenoxy)-N-(1-methyl-6-oxo-1,6-dihydropyridazin-3-yl)pyrrolidine-1-carboxamide]
IC50 [1, 3]: 2.8 µM
IC50 [2, 4]: 0.42 µM

Cn1nc(NC(=O)N2CC[C@H](Oc3cc(F)cc(F)c3)C2)ccc1=O [Compound 30, (3S)-3-(3,5-difluorophenoxy)-N-(1-methyl-6-oxo-1,6-dihydropyridazin-3-yl)pyrrolidine-1-carboxamide]
IC50 [1, 3]: 2.9 µM
IC50 [2, 4]: 0.33 µM

Cn1nc(NC(=O)N2CCC[C@@H](c3ccc(Cl)cc3)CC2)ccc1=O [Compound 31]
IC50 [1, 3]: > 45 µM
IC50 [2, 4]: 39 µM

Cn1nc(NC(=O)N2CCC[C@@H](c3cc(F)cc(F)c3)CC2)ccc1=O [Compound 32]
IC50 [1, 3]: 21 µM
IC50 [2, 4]: 7.2 µM

Cn1nc(NC(=O)N2CCC(=Cc3cc(F)cc(F)c3)CC2)ccc1=O [Compound 33, 4-(3,5-difluorobenzylidene)-N-(1-methyl-6-oxo-1,6-dihydropyridazin-3-yl)piperidine-1-carboxamide]
IC50 [1, 3]: 0.14 µM
IC50 [2, 4]: 0.44 µM

O=C(Cc1ccc(=O)[nH]n1)N1CCC(Cc2cccc(Cl)c2)CC1 [Compound 34]
IC50 [1, 3]: 8.2 µM
IC50 [2, 4]: > 45 µM

O=C(Cc1ccc(=O)[nH]n1)N1CCC(Cc2cc(F)cc(F)c2)CC1 [Compound 35]
IC50 [1, 3]: 20.4 µM
IC50 [2, 4]: > 45 µM

O=C(Cc1ccc(=O)[nH]n1)N1CCC(Oc2cccc(Cl)c2)CC1 [Compound 36, 6-(2-(4-(3-chlorophenoxy)piperidin-1-yl)-2-oxoethyl)pyridazin-3(2H)-one]
IC50 [1, 3]: 5.35 µM
IC50 [2, 4]: 25.5 µM

Cn1nc(CC(=O)N2CCC(Cc3cccc(Cl)c3)CC2)ccc1=O [Compound 37, 6-(2-(4-(3-chlorobenzyl)piperidin-1-yl)-2-oxoethyl)-2-methylpyridazin-3(2H)-one]
IC50 [1, 3]: 4.36 µM
IC50 [2, 4]: 12.7 µM

Cn1nc(CC(=O)N2CCC(Cc3cc(F)cc(F)c3)CC2)ccc1=O [Compound 38, 6-(2-(4-(3,5-difluorobenzyl)piperidin-1-yl)-2-oxoethyl)-2-methylpyridazin-3(2H)-one]
IC50 [1, 3]: 6.37 µM
IC50 [2, 4]: 17.2 µM

Cn1nc(CC(=O)N2CCC(Oc3cccc(Cl)c3)CC2)ccc1=O [Compound 39]
IC50 [1, 3]: 1.38 µM
IC50 [2, 4]: 1.35 µM

Cn1nc(NC(=O)N2CCC(Cc3cccc(F)c3)CC2)ccc1=O [Compound 41, 4-(3-fluorobenzyl)-N-(1-methyl-6-oxo-1,6-dihydropyridazin-3-yl)piperidine-1-carboxamide]
IC50 [1, 3]: 0.14 µM
IC50 [2, 4]: 2.71 µM

Cn1nc(NC(=O)N2CCC(Cc3ccc(Cl)cc3)CC2)ccc1=O [Compound 43]
IC50 [1, 3]: 2.24 µM
IC50 [2, 4]: 8.58 µM

Cn1nc(-c2nc(N3CCC(Cc4cccc(F)c4)CC3)no2)ccc1=O [Compound 114, 6-(3-(4-(3-fluorobenzyl)piperidin-1-yl)-1,2,4-oxadiazol-5-yl)-2-methylpyridazin-3(2H)-one]
IC50 [1, 3]: 0.01 µM
